Results reported in ChEMBL document CHEMBL4014263, “Diterpenoids and Lignans from Cephalotaxus fortunei” (J Nat Prod, 2017).

Tests used:
[1] = system: A549; test: Cytotoxicity against human A549 cells assessed as growth inhibition at 10 uM by SRB assay relative to control; assay type: functional; settings: read-out: GI
[2] = system: HL-60; test: Cytotoxicity against human HL60 cells assessed as growth inhibition at 10 uM by MTT assay relative to control; assay type: functional; settings: read-out: GI
[3] = system: A549; test: Cytotoxicity against human A549 cells by SRB assay; assay type: functional, cell-based
[4] = system: HL-60; test: Cytotoxicity against human HL60 cells by MTT assay; assay type: functional, cell-based

| SMILES | inhibition of growth at 10 µM [1] [%] | inhibition of growth at 10 µM [2] [%] | IC50 [3] [nM] | IC50 [4] [nM] |
| --- | --- | --- | --- | --- |
| COc1cc([C@@H]2Oc3cc(OC)c(OC)cc3[C@H]2CO)ccc1O | < 50 | < 50 |  |  |
| Cc1cc(=O)cc2c3c1C[C@@H]1[C@H]4OC(=O)[C@](CC2)([C@H](C)[C@H]4O)[C@]31O | < 50 | < 50 |  |  |
| COc1cc(C[C@@]2(O)C(=O)O[C@@H](c3ccc(O)c(OC)c3)[C@@H]2CO)ccc1O | < 50 | < 50 |  |  |
| Cc1cc(=O)cc2c3c1C(=O)[C@@H]1[C@H]4OC(=O)[C@](CC2)([C@H](C)[C@H]4O)[C@H]31 |  |  | 1130 | 770 |
| COc1cccc2c1C(=O)c1c(O)c3c(c(O)c1C2=O)C[C@@](O)(C(=O)CO)C[C@@H]3O[C@H]1C[C@H](N)[C@H](O)[C@H](C)O1 [DOXORUBICIN] |  |  | 124 | 31 |
| CC(CO)c1cc2c(cc1O)[C@@]1(C)CC[C@H](O)C(C)(C)[C@@H]1CC2=O (stereo not given in full) | < 50 | < 50 |  |  |
| Cc1cc(=O)cc2c3c1[C@@H](O)[C@@H]1[C@H]4OC(=O)[C@](CC2)([C@H](C)[C@H]4O)[C@H]31 | < 50 | < 50 |  |  |
| COc1ccc(C[C@@]2(O)C(=O)O[C@@H](c3ccc(OC)c(OC)c3)[C@@H]2CO)cc1OC | < 50 | < 50 |  |  |
| C[C@@H]1[C@@H](O)[C@@H]2OC(=O)[C@]13CC[C@@H]1C[C@H](O)C[C@H](C)C4=C1[C@@H]3[C@@H]2C4=O | < 50 | < 50 |  |  |
| C[C@@H]1[C@@H](O)[C@@H]2OC(=O)[C@]13CC[C@@H]1C[C@@H](O)C[C@H](C)C4=C1[C@@H]3[C@@H]2C4=O | < 50 | < 50 |  |  |
